Results reported in paper PMC7822874, “Chemoprotective antimalarials identified through quantitative high-throughput screening of Plasmodium blood and liver stage parasites” (Scientific Reports, 2021).
Read-outs that look alike come from different tables or passages of the source.

Experiments:
HepG2-A16-CD81EGFP cells = conditions: averaged response (percent)
[1] = tested on: P. falciparum Dd2 (clone B2) asexual blood stage parasites; assay: P. falciparum Dd2 asexual blood stage SYBR Green-I 72 h proliferation assay (qHTS); type: cell-based, Plasmodium falciparum; conditions: averaged P. falciparum asexual blood stage potency, log10 of AC50 in M
[2] = tested on: P. berghei-ANKA-GFP-LucCON liver stage parasites in HepG2-A16-CD81EGFP cells; assay: P. berghei liver stage Pb-Luc assay, Method 1 (UCSD, 1536-well); type: cell-based, Plasmodium berghei; conditions: P. berghei liver stage, averaged response (percent); for Average P. berghei 1 µM response (%): the header list (r8) defines it as the 1 µM dose
[3] = HepG2, the header list (r10) describes it as the 1 µM dose

SMILES | Average HepG2 3 µM response( %) (HepG2-A16-CD81EGFP cells; HepG2, 3 µM dose) [%] | Average HepG2 3 µM response( %) (HepG2-A16-CD81EGFP cells; [3]) [%] | Pf ABS Log AC50 (M) [1] [M] | Average P. berghei 3 µM response( %) [2] [%] | Average P. berghei 1 µM response (%) [2] [%]
Cc1cc(Oc2c(C(F)(F)F)oc3c(CN4CCC(C)CC4)c(O)ccc3c2=O)cc(C)c1Cl [NCGC00101140] | 111 | 110 | -6.125 | 71 | 85
COc1cc(Br)c(C(C)NC(=O)c2cccc(Br)c2)cc1OC (stereo not drawn) [MLS000325399] | 93 | 98 | -5.887 | 70 | 107
O=C1c2cc(F)ccc2-n2c1nc1ccccc1c2=O [MLS001216278] | 94 | 94 | -5.937 | 13 | 25
N=c1c2c(n(Cc3ccccc3)c3c1CCC3)CCC2 [MLS000080128] | 74 | 94 | -5.712 | 16 | 14
O=C1NCc2ccccc2CC12CCCN(Cc1ccccc1)C2 (stereo not drawn) [NCGC00377595] | 104 | 103 | -4.980 | 106 | 116
O=c1cc(-c2ccccc2)c2ccc3c(c2o1)CN(Cc1ccccc1)CO3 [NCGC00116340] | 100 | 102 | -5.575 | 76 | 87
Cc1nn(-c2nnc(NCc3ccccc3)nn2)c(C)c1Br [MLS000704225] | 93 | 102 | -6.187 | 57 | 106
CN(C)c1cc[n+](CC(=O)c2cccs2)cc1 [MLS001207444] | 101 | 101 | -5.387 | 62 | 89
Cc1ccccc1NC(=O)Nc1ccc2nc(N3CCN(C)CC3)cc(C)c2c1 [NCGC00126513] | 106 | 104 | -5.825 | 104 | 110
OC(CNCCNc1ncccc1C(F)(F)F)Cn1ccc2ccccc21 (stereo not drawn) [MLS000833573] | 95 | 101 | -5.662 | 109 | 113
COC(=O)[C@H]1[C@H]2C[C@@H]3c4[nH]c5cc(OC)ccc5c4CCN3C[C@H]2C[C@@H](OC(=O)/C=C/c2cc(OC)c(OC)c(OC)c2)[C@@H]1OC [MLS002153878] | 105 | 105 | -5.162 | 84 | 102
Cn1ccc(NCc2nnc(C(=O)N3CCC[C@@H]3C(c3ccccc3)c3ccccc3)n2-c2ccccc2)n1 [NCGC00415774] | 99 | 96 | -5.875 | 89 | 95
CN1CCC(NCCC(c2ccc(F)cc2)c2ccc(Cl)cc2)CC1 (stereo not drawn) [MLS001215866] | 100 | 100 | -5.437 | 70 | 103
COc1ccc(CCN2CCC(Nc3nc4ccccc4n3Cc3ccc(F)cc3)CC2)cc1 [NCGC00016913] | 100 | 99 | -5.658 | 43 | 54
COc1cc2c(cc1Oc1cccc(N(C)C)c1)NC(=O)C21CCN(c2cnccn2)CC1 [NCGC00416778] | 89 | 98 | -5.825 | 43 | 96
N=c1n(N)c2ccccc2n1CC(=O)c1ccc(Br)cc1 [MLS001183984] | 102 | 102 | -5.837 | 137 | 110
CCCCCC(=O)O[C@]1(C(C)=O)CC[C@H]2[C@@H]3CCC4=CC(=O)CC[C@]4(C)[C@H]3CC[C@@]21C [MLS000028438] | 104 | 104 | -5.700 | 29 | 85
CCN(C(=O)CSc1nc(-c2ccc(C(C)C)cc2)no1)c1ccccc1 [NCGC00127904] | 105 | 102 | -6.025 | 98 | 117
Clc1ccc(-c2nnc(N3CCCC3)nn2)cc1 [MLS000038815] | 104 | 104 | -5.512 | 153 | 160
COc1ccc(C(CCN2CCCCC2)c2c(O)cc(OC)cc2OC)cc1 (stereo not drawn) [MLS000879486] | 88 | 92 | -5.962 | 88 | 105
Oc1ccc(C2NCc3ccccc3-n3cccc32)cc1Cl (stereo not drawn) [MLS000878874] | 105 | 105 | -5.925 | 82 | 96
COc1ccc(-c2nc3sc(CCNC(=O)c4ccc(C(C)(C)C)cc4)c(C)n3n2)cc1 [NCGC00137079] | 98 | 98 | -5.675 | 84 | 132
Cc1ccc2[nH]c(C(=O)Nc3ccc(F)cc3)cc2c1 [MLS001183414] | 100 | 100 | -4.837 | 91 | 92
O=C(/C=C/c1ccco1)NC(=S)Nc1ccccc1N1CCCC1 [MLS000663784] | 105 | 105 | -5.575 | 104 | 113
CCN1CCN(C(=O)c2ccc3c(c2)N(Cc2ccccc2F)C(=O)c2ccccc2[S+]3[O-])CC1 (stereo not drawn) [NCGC00109528] | 98 | 98 | -6.075 | 103 | 106
OC(CN1CCN(c2ccccn2)CC1)Cn1c2ccc(Cl)cc2c2cc(Cl)ccc21 (stereo not drawn) [MLS000529159] | 102 | 102 | -5.612 | 77 | 108
C=C(C)COc1ccc(-c2ncnc(C(F)(F)F)c2-c2ccc(OC)cc2)c(O)c1 [MLS001216205] | 103 | 92 | -5.462 | 105 | 107
